Source: US20150119391A1, “ANTI-TUMORAL COMPOSITION COMPRISING THE COMPOUND 1-(6--1,3-BENZOTHIAZOL-2-YL)-3-(2-MORPHOLIN-4-YLETHYL)UREA” (SANOFI, priority 2012, published 2015)
In brackets after ≈: the same amount, converted by molar mass. Where two headings read alike, the source gives them in different places.

Legend:
solubility in water = format: physicochemical
[1] = test system: human Met-amplified models; experiment: cellular anti-tumor activity as a single agent; format: cell-based
pKa (weak base) = format: physicochemical
[2] = stability to steam sterilization; format: physicochemical
Description: The concentrated pharmaceutical composition is prepared by usual methods for the preparation of aqueous liquid pharmaceutical composition. Generally, the process comprises a sterilization step, which is typically carried out by sterilizing filtration followed by aseptic filling.

[3] = test system: human Met-driven tumor cell lines; experiment: in vitro anti-proliferative activity; format: cell-based; conditions: (nM), Met-driven tumor cell lines exclusively
[4] = Biopharmaceutics Classification System class / permeability characteristics; format: physicochemical

solubility (solubility in water): < 0.1 µg/mL
solubility (solubility in water; aqueous buffer, above pH 5): < 0.1 µg/mL
solubility (solubility in water; pH 1, simulated gastric fluid): ~90 µg/mL (≈ 163 µM)
solubility (solubility in water; pH 3, aqueous buffer): ~20 µg/mL (≈ 36.3 µM)
pKa (pKa (weak base)): 6.4
chemical stability on steam sterilization [2]: chemical degradation
permeability characteristics [4]: poor
SMILES: O=C(NCCN1CCOCC1)Nc1nc2ccc(Sc3nnc4ccc(-c5ccc(F)cc5)nn34)cc2s1 [Compound A, 1-(6-{[6-(4-fluorophenyl)[1,2,4]triazolo[4,3-b]pyridazin-3-yl]sulfanyl}-1,3-benzothiazol-2-yl)-3-(2-morpholin-4-ylethyl)urea]
cellular anti-tumor activity [1]: highly potent
anti-proliferative activity [3]: highly potent
